One series relates to Zaire ebolavirus. Nature of the series: Antiviral activity against Zaire ebola virus infected in African green monkey Vero cells. Format: functional, organism-based.
A short description of series [1]: Cytotoxicity against African green monkey Vero cells. Format: cell-based. To be noted: chlorocebus sabaeus.
Series [2] in a line: Selectivity index, ratio of CC50 for African green monkey Vero cells to EC50 for antiviral activity against Ebola virus infected in African green monkey Vero cells. Format: toxicity. As to conditions: read-out: Ratio CC50/EC50.
In a further series the test system is Marburgvirus. Nature of the series: Antiviral activity against Marburgvirus Angola infected in African green monkey Vero cells. It counts as functional, organism-based. As to conditions: Orthomarburgvirus.
Series [3] can be described thus: Selectivity index, ratio of EC50 for antiviral activity against Marburgvirus Angola infected in African green monkey Vero cells to CC50 for African green monkey Vero cells. Format: toxicity. As to conditions: read-out: Ratio CC50/EC50.
In series [4] the test system is Measles morbillivirus. Nature of the series: Antiviral activity against Measles virus infected in African green monkey Vero cells by neutral red assay. Format: functional, organism-based.
Series [5] can be described thus: Selectivity index, ratio of EC50 for antiviral activity against Measles virus infected in African green monkey Vero cells to CC50 for African green monkey Vero cells. Format: toxicity. As to conditions: read-out: Ratio CC50/EC50.
Series [6] concerns Measles morbillivirus. Nature of the series: Antiviral activity against Measles virus infected in African green monkey Vero cells by visible analysis. It counts as functional, organism-based.
The nature of series [7]: Selectivity index, ratio of EC50 for antiviral activity against Measles virus infected in African green monkey Vero cells by visible analysis to CC50 for African green monkey Vero cells. It counts as toxicity. To be noted: read-out: Ratio CC50/EC50.
The subject of another series is Norovirus. The series can be described thus: Antiviral activity against Norovirus infected in human HG23 cells. It counts as functional, organism-based.
Series [8] can be described thus: Cytotoxicity against human HG23 cells. It counts as cell-based.
The nature of series [9]: Selectivity index, ratio of EC50 for antiviral activity against Norovirus infected in human HG23 cells by visible analysis to CC50 for human HG23 cells. Format: toxicity, cell-based.
In another series the test system is Chikungunya virus. Nature of the series: Antiviral activity against Chikungunya virus infected in African green monkey Vero 76 cells. Format: functional, organism-based.
The next series has as its system dengue virus type 2. Nature of the series: Antiviral activity against Dengue virus 2 infected in African green monkey Vero 76 cells. It counts as functional, organism-based.
The subject of series [10] is Japanese encephalitis virus. Nature of the series: Antiviral activity against Japanese encephalitis virus infected in African green monkey Vero 76 cells. It counts as functional, organism-based.
In another series the test system is Punta Toro virus. Nature of the series: Antiviral activity against Punta Toro virus infected in African green monkey Vero 76 cells. It counts as functional, organism-based.
The next series deals with Rift Valley fever virus. The series can be described thus: Antiviral activity against Rift Valley fever virus infected in African green monkey Vero 76 cells. It counts as functional, organism-based.
The next series relates to Tacaribe virus. Nature of the series: Antiviral activity against Tacaribe virus infected in African green monkey Vero cells. It counts as functional, organism-based. To be noted: Mammarenavirus tacaribeense.
Series [11] has as its system Venezuelan equine encephalitis virus. The series can be described thus: Antiviral activity against Venezuelan equine encephalitis virus infected in African green monkey Vero 76 cells. Format: functional, organism-based.
Another series has as its system West Nile virus. Nature of the series: Antiviral activity against West Nile virus infected in African green monkey Vero 76 cells. It counts as functional, organism-based.
The subject of another series is Yellow fever virus. The series can be described thus: Antiviral activity against Yellow fever virus infected in African green monkey Vero 76 cells. It counts as functional, organism-based.
Another series concerns Human adenovirus 5. Nature of the series: Antiviral activity against Human adenovirus 5 infected in human A549 cells. It counts as functional, organism-based.
A further series deals with Influenza A virus. The series can be described thus: Antiviral activity against Influenza A virus (H1N1) infected in dog MDCK cells. Format: functional, organism-based.
A further series relates to Enterovirus A71. The series can be described thus: Antiviral activity against Human enterovirus 71 infected in African green monkey Vero 76 cells. It counts as functional, organism-based.
Another series concerns Junin virus. The series can be described thus: Antiviral activity against Junin virus infected in African green monkey Vero cells. It counts as functional, organism-based. To be noted: Mammarenavirus juninense.
The subject of a further series is Pichinde virus. The series can be described thus: Antiviral activity against Pichinde virus infected in African green monkey Vero cells. It counts as functional, organism-based.
The next series has as its system Murine norovirus. Nature of the series: Antiviral activity against Murine norovirus infected in mouse RAW264.7 cells. It counts as functional, organism-based.
A further series has as its system Hepatitis B virus. The series can be described thus: Antiviral activity against Hepatitis B virus infected in human HepG2.2.15 cells. Format: functional, organism-based.
Another series deals with BK polyomavirus. The series can be described thus: Antiviral activity against BK polyomavirus infected in human HFF cells. It counts as functional, organism-based. As to conditions: Betapolyomavirus hominis.
Series [12] is described as follows: Cytotoxicity against human HFF cells. It counts as cell-based.
Series [13] can be described thus: Selectivity index, ratio of EC50 for antiviral activity against BK polyomavirus infected in human HFF cells by visible analysis to CC50 for human HFF cells. Format: toxicity, cell-based. As to conditions: read-out: Ratio CC50/EC50.
The next series concerns Human alphaherpesvirus 1. Nature of the series: Antiviral activity against HSV-1 infected in human HFF cells. Format: functional, organism-based.
A further series has as its system Lassa virus. Nature of the series: Antiviral activity against Lassa virus infected in African green monkey Vero cells. As to conditions: Mammarenavirus lassaense. It counts as functional, organism-based.
The test system of series [14] is Measles morbillivirus. Nature of the series: Antiviral activity against Measles virus infected in African green monkey Vero 76 cells. Format: functional, organism-based.
A further series concerns Ebolavirus. The series can be described thus: Antiviral activity against Ebola virus infected in African green monkey Vero 76 cells. It counts as functional, organism-based.

Each structure is given as a SMILES string. The source made the active and inactive calls. The rule behind the calls is not given here.

In general, EC50 refers to the concentration needed to bring the measured effect to its halfway point. By CC50 is commonly meant the concentration that lowers cell viability or growth by half. In the case of `Nc1ncc(Br)c2c1ncn2[C@@H]1C(F)=C[C@@H](O)[C@H]1O`, the EC50 is 0.11 µM in the series on Zaire ebolavirus; 0.1 µM in the series on Marburgvirus; 1.2 µM in the series on Measles morbillivirus [4]; 1.8 µM in the series on Measles morbillivirus [6]; 6.4 µM in the series on Norovirus. For the same compound, the CC50 in series [1] was at least 9.5 µM; in [8], above 100 µM. In addition, the selectivity ratio in series [2] is 381; in [3], 420; in series [5], 7.9; in [7] it was 6.7; in series [9] (read-out: Ratio CC50/EC50), above 16. Further, the result (with Chikungunya virus; in the series with dengue virus type 2; in series [10]; with Punta Toro virus; with Rift Valley fever virus; in the series with Tacaribe virus) was inactive. The result (in series [11]; in the series on West Nile virus; with Yellow fever virus; in the series with Human adenovirus 5; in the series with Influenza A virus; with Enterovirus A71) was inactive. Further, the result in the series on Junin virus, in the series with Pichinde virus, in the series with Murine norovirus and in the series with Hepatitis B virus was inactive.
For the compound `Nc1nccc2c1ncn2[C@@H]1C(F)=C[C@@H](O)[C@H]1O`, the EC50 with Zaire ebolavirus amounted to 0.12 µM; in the series with Marburgvirus it was 0.52 µM; in the series on Measles morbillivirus [4] it was 3.6 µM; in the series on Measles morbillivirus [6] it was 4.2 µM; in the series with Norovirus it was 2.7 µM. For the same compound, the results for the CC50 in series [1] and in series [8] were at least 14 µM and above 100 µM, respectively. For the same compound, the selectivity ratio in series [2] was 117; in series [3] it was 27; in series [5], 36; in series [7], 10; in [9] (read-out: Ratio CC50/EC50), above 37. For the same compound, the outcome (in the series with Chikungunya virus; in the series on dengue virus type 2; in series [10]; in the series on Punta Toro virus; in the series with Rift Valley fever virus; in the series with Tacaribe virus) was inactive. The outcome (in series [11]; with West Nile virus; in the series with Yellow fever virus; with Human adenovirus 5; in the series with Influenza A virus; in the series with Enterovirus A71) was inactive. Further, the outcome with Junin virus, in the series with Pichinde virus, with Murine norovirus and in the series on Hepatitis B virus was inactive.
`Nc1ccn([C@@H]2O[C@H](CO)[C@@H](O)[C@H]2F)c(=O)n1` returned an EC50 in the series on Measles morbillivirus [4] of 1.1 µM. The selectivity ratio in [5] is above 91.
`Nc1nccc2c1ncn2[C@H]1C(F)=C[C@H](O)[C@@H]1O`: the midpoint of the response in the series on BK polyomavirus, the EC50, lay at 23 µM. This compound also registered a CC50 in series [12] above 150 µM. The selectivity ratio in [13] is above 7. Further, the outcome (with Chikungunya virus; in the series on dengue virus type 2; in the series with Rift Valley fever virus; with Tacaribe virus; in [11]; in the series with West Nile virus) was inactive. Besides, the result in the series on Yellow fever virus, in the series with Influenza A virus, in the series on Enterovirus A71, with Pichinde virus, in the series with Human alphaherpesvirus 1 and in the series on Lassa virus was inactive. Further, the outcome in the series with Measles morbillivirus [14] and with Ebolavirus was inactive.
In turn, `C[C@@]1(O)[C@H](O)[C@@H](CO)O[C@H]1n1ccc(N)nc1=O` displayed an EC50 in the series with Norovirus of 6.4 µM. The same compound showed a CC50 in series [8] above 300 µM. In addition, in [9], the selectivity ratio is above 47.
As for `NC(=O)c1nc(F)cnc1O` [FAVIPIRAVIR], the EC50 in the series with Zaire ebolavirus came out at 66 µM; in the series on Marburgvirus, 155 µM. Further, the CC50 in series [1] was above 1000 µM. Also, the selectivity ratio in series [2] is 15; in [3], above 6.5.
What is called EC90 is the concentration at which the effect reaches the 90% level. For the compound `Nc1ncc(Br)c2c1ncn2[C@H]1C(F)=C[C@H](O)[C@@H]1O`, in the series on BK polyomavirus, the response was half-maximal at 34.5 µM (EC50). This compound yielded an EC90 with BK polyomavirus of 145 µM. In series [12], this compound showed a cytotoxic concentration (CC50) above 150 µM. The selectivity ratio in series [13] was above 4. Also, the result (with Chikungunya virus; with dengue virus type 2; in the series on Rift Valley fever virus; in the series on Tacaribe virus; in series [11]; in the series on West Nile virus) was inactive. In addition, the outcome in the series on Yellow fever virus, with Influenza A virus, in the series with Enterovirus A71, with Pichinde virus, with Human alphaherpesvirus 1 and in the series with Lassa virus was inactive. For the same compound, the result in the series on Measles morbillivirus [14] and in the series on Ebolavirus was inactive.
